This passage reports GI50 and TGI results from PubChem BioAssay (NCI).

Several values for one entry are separate records, joined by “and”; a condition that tells them apart may be missing. Equal values may be shown once.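 Five concentrations, 48 hours, 96-well plates. GI50 = concentration required for 50% inhibition of growth. TGI is the concentration that stops growth completely.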

Some test systems named below: SF-268 CNS; BT-549 breast; NCI-H23 lung; EKVX NSCLC; MALME-3M melanoma; SF-539 CNS.
What all share (experiment): NCI tumour cell line growth inhibition, 48 h

Regarding `CC(C)n1c(/C=C/[C@@H](O)C[C@@H](O)CC(=O)O)c(-c2ccc(F)cc2)c2ccccc21`, the GI50 was 0.666 µM and 0.818 µM in the assay on SF-268 CNS; 5.8 µM and 4.63 µM with BT-549 breast; 3.29 µM and 3.86 µM with NCI-H23 lung; 16.8 µM in the assay with EKVX NSCLC; 26.7 µM and 27.4 µM in the assay on MALME-3M melanoma; 25.7 µM and 10.5 µM in the assay on SF-539 CNS. The TGI in the assay on SF-268 CNS is greater than 100 µM; with BT-549 breast it was greater than 77.6 µM; with NCI-H23 lung, greater than 100 µM; in the assay with EKVX NSCLC, greater than 100 µM; in the assay with MALME-3M melanoma, greater than 100 µM; in the assay with SF-539 CNS it was greater than 100 µM.

In the case of `O=C(Nc1ccc(OC(F)(F)F)cc1)c1sccc1NCc1ccnc2ccccc12`, the GI50 with SF-268 CNS is 5.26 µM; in the assay with BT-549 breast it was 6.9 µM; in the assay with NCI-H23 lung, 2.18 µM; in the assay with EKVX NSCLC it was 2.35 µM; in the assay on MALME-3M melanoma it was 1.85 µM; in the assay with SF-539 CNS, 4.3 µM. The TGI in the assay with SF-268 CNS is greater than 100 µM; with BT-549 breast, 51.5 µM; in the assay on NCI-H23 lung it was 19.6 µM; in the assay on EKVX NSCLC, greater than 100 µM; in the assay on MALME-3M melanoma it was 14.6 µM; with SF-539 CNS, greater than 100 µM.

For the molecule `NS(=O)(=O)c1ccc(N2Cc3cc(Cl)ccc3OC3=C2C(=O)N(CC2CCCCC2)C3=O)cc1`, the GI50 is 1.22 µM in the assay on SF-268 CNS; 0.546 µM in the assay on BT-549 breast; 1.64 µM in the assay with NCI-H23 lung; 1.47 µM with EKVX NSCLC; 1.3 µM in the assay on MALME-3M melanoma; 1.47 µM with SF-539 CNS. For the same molecule, the TGI in the assay with SF-268 CNS turned out to be 2.69 µM; in the assay on BT-549 breast, 1.97 µM; in the assay on NCI-H23 lung it was 3.61 µM; in the assay on EKVX NSCLC it was 2.91 µM; with MALME-3M melanoma, 2.83 µM; in the assay on SF-539 CNS it was 2.82 µM.

With `CSc1ccc(C2=Nn3c(nnc3-c3ccc(F)c(Cl)c3)SC2)cc1`, the GI50 is 75.7 µM in the assay on SF-268 CNS; 12.8 µM in the assay on BT-549 breast; 37.4 µM with NCI-H23 lung; 42.1 µM in the assay with EKVX NSCLC; 2.01 µM with MALME-3M melanoma; 10.1 µM in the assay with SF-539 CNS. The TGI with SF-268 CNS was greater than 100 µM; in the assay with BT-549 breast it was 50.5 µM; with NCI-H23 lung it was greater than 100 µM; in the assay with EKVX NSCLC, greater than 100 µM; with MALME-3M melanoma it was 10.9 µM; with SF-539 CNS, 26.7 µM.

As to `CCOC(=O)c1c(NC(=O)c2ccc(C(C)C)cc2)sc2c(CN(C)C)c(O)ccc12`, the GI50 with SF-268 CNS is 1.98 µM; in the assay on BT-549 breast, 2.18 µM; in the assay on NCI-H23 lung, 3.22 µM; with EKVX NSCLC it was 2.78 µM; with MALME-3M melanoma it was 1.72 µM; in the assay with SF-539 CNS, 1.74 µM. The TGI in the assay with SF-268 CNS came out at 4.06 µM; in the assay with BT-549 breast, 5.35 µM; in the assay with NCI-H23 lung, 13.3 µM; in the assay on EKVX NSCLC, 9.09 µM; in the assay on MALME-3M melanoma it was 3.22 µM; in the assay on SF-539 CNS, 3.23 µM.

Regarding `C#C[C@]1(O)CC[C@H]2[C@@H]3CC=C4c5nc(Nc6ccccn6)sc5CC[C@]4(C)[C@H]3CC[C@@]21C`, the GI50 was 1.85 µM in the assay on SF-268 CNS; 0.692 µM in the assay on BT-549 breast; 1.67 µM with NCI-H23 lung; 1.72 µM with EKVX NSCLC; 0.677 µM in the assay with MALME-3M melanoma; 0.185 µM in the assay on SF-539 CNS. Moreover, the TGI was 6.87 µM in the assay with SF-268 CNS; 2.82 µM with BT-549 breast; 6.64 µM with NCI-H23 lung; 9.14 µM with EKVX NSCLC; 2.32 µM in the assay on MALME-3M melanoma; 0.744 µM in the assay with SF-539 CNS.

Turning to `CCN(c1ccc(CO)c(Cl)c1)C(C)c1ccc(F)cc1` (stereo unspecified), the GI50 in the assay with SF-268 CNS was 17 µM; with BT-549 breast, 15.5 µM; with NCI-H23 lung, 14 µM; in the assay with MALME-3M melanoma, 16.7 µM; with SF-539 CNS, 16.5 µM. The TGI with SF-268 CNS is 31.9 µM; in the assay on BT-549 breast, 29.6 µM; in the assay on NCI-H23 lung, 30.5 µM; in the assay with MALME-3M melanoma, 31.8 µM; in the assay on SF-539 CNS, 30.8 µM.

Consider `C[C@]12CC[C@@H]3c4ccc(O)c([N+](=O)[O-])c4CC[C@H]3[C@@H]1CC[C@@H]2NS(=O)(=O)c1ccc(C(F)(F)F)cc1`, for which the GI50 with SF-268 CNS is 2.28 µM; in the assay on BT-549 breast, 1.57 µM; in the assay with NCI-H23 lung, 1.84 µM; in the assay with MALME-3M melanoma it was 1.99 µM; with SF-539 CNS, 1.77 µM. The TGI in the assay on SF-268 CNS was determined as 7.55 µM; in the assay with BT-549 breast it was 3.03 µM; in the assay with NCI-H23 lung, 4.1 µM; in the assay on MALME-3M melanoma, 5.41 µM; in the assay with SF-539 CNS, 3.39 µM.

With `Nc1cc2c3c(cccc3c1)NC2=O`, the TGI with SF-268 CNS, with NCI-H23 lung, with EKVX NSCLC, in the assay with MALME-3M melanoma and in the assay with SF-539 CNS was greater than 100 µM in each case.

For the molecule `CCc1nc(N)nc(N)c1-c1ccc([N+](=O)[O-])c(NCc2ccccc2)c1`, the TGI in the assay on SF-268 CNS is 40.3 µM; in the assay with BT-549 breast, 47.1 µM; with NCI-H23 lung, greater than 60.6 µM; with EKVX NSCLC it was 41.6 µM; in the assay on SF-539 CNS, 39.3 µM.

In the case of `COc1ccc(OC)c(-c2cc(-c3ccccc3)nn2-c2ccc(S(=O)(=O)NC(C)=O)cc2)c1`, the GI50 in the assay with SF-268 CNS was 10.1 µM; in the assay on BT-549 breast it was 16.2 µM; in the assay on NCI-H23 lung, 8.24 µM; in the assay on EKVX NSCLC, 22.8 µM; in the assay with SF-539 CNS, 28.1 µM. Further, the TGI in the assay on SF-268 CNS was determined as 32.2 µM; in the assay with BT-549 breast, 38.6 µM; with NCI-H23 lung, 21.5 µM; with EKVX NSCLC, 41.8 µM; in the assay with SF-539 CNS, 60.4 µM.

On to `CC(CO)[C@H]1OC(=O)C=C2[C@@]13O[C@@H]3[C@H]1OC(=O)[C@@]3(C)[C@H]4O[C@H]4C[C@@]2(C)[C@@H]13` (stereo partly specified), for which the TGI in the assay on SF-268 CNS is greater than 25.8 µM; in the assay with BT-549 breast, 8.2 µM; in the assay with NCI-H23 lung, greater than 36.6 µM; with EKVX NSCLC it was 18.3 µM; in the assay on MALME-3M melanoma, 8.46 µM.

For the molecule `COc1cc(-c2csc(NC(=O)c3cc(C(F)(F)F)cc(C(F)(F)F)c3)n2)cc(OC)c1OC`, the GI50 with SF-268 CNS is 3.64 µM; with BT-549 breast, 2.16 µM; with EKVX NSCLC it was 2.47 µM; with SF-539 CNS, 3.35 µM. For the same molecule, the TGI was greater than 100 µM with SF-268 CNS, 6.66 µM with BT-549 breast, greater than 100 µM in the assay with EKVX NSCLC and greater than 100 µM in the assay on SF-539 CNS.

With `COc1ccc(-n2nnc3c(sc4ccccc43)c2=O)cc1`, the GI50 with SF-268 CNS, in the assay on BT-549 breast and in the assay with NCI-H23 lung was greater than 100 µM throughout. The TGI with SF-268 CNS, in the assay on BT-549 breast and in the assay with NCI-H23 lung was greater than 100 µM in each case.
